Here are results for 28 compounds from PubChem BioAssay (NCI).

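Cells were grown in 96-well plates and exposed to each compound for 48 hours at five concentrations; endpoints were interpolated linearly between bracketing concentrations, or set to the highest concentration if not reached. TGI: concentration producing complete growth inhibition.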 A value given as a limit tells only on which side of the number the result lay.

The test system of the first experiment is SF-539 CNS. As to the kind of experiment: inhibition of tumour cell growth, NCI panel, 48 h.
With `NS(=O)(=O)c1cc2c(cc1Cl)NC(CCC(=O)O)=NS2(=O)=O`, the TGI was > 100 µM.
The compound `CCOC(=O)c1nc2c(nc1C(=O)OCC)C(=O)c1ccccc1C2=O` gave a TGI of 1.71 µM.
The same measure, in the same setting: the result for `Cc1ccc2c(c1)C(=O)C1(Cc3ccccc3C1=O)C2` (configuration not stated) reads > 100 µM; that for `CC(=O)Nc1nc(C#N)[nH]c1C#N`, > 100 µM.
With `O=C(O)/C=C(/C(=O)O)C12CCN3CC4=CCOC5CC(=O)NC1C5C4CC32` (configuration not stated), the TGI is > 100 µM.
With `Cc1c(S(=O)(=O)c2ccccc2)c(N)n(CCN(C)C)c1C`, the TGI was > 100 µM.
In the case of `CS(=O)c1ncc2c(n1)-c1ccccc1OC2` (configuration not stated), the TGI is > 100 µM.
Consider `O=[N+]([O-])c1ccc(Oc2c(Cl)cc(S(=O)(=O)/N=C(\NO)Nc3ccc(Cl)cc3)cc2Cl)cc1`, for which the TGI was 26.7 µM.
Still for that read-out and setting: with `Cc1cc(N(CCOS(C)(=O)=O)CCOS(C)(=O)=O)ccc1C=O` the figure was 2.88 µM.
Same read-out and setting: the result for `O=c1[nH]c(=O)n(C2OC(CO)C(O)C2O)c2nc(-c3ccc(-c4ccccc4)cc3)cnc12` (configuration not stated) reads > 100 µM; that for `CN1CSC(=S)N(c2c3ccccc3nc3ccc(Br)cc23)C1`, 25.7 µM; that for `O=C(O)c1ccccc1CC1Cc2ccccc2C1=O` (configuration not stated), > 100 µM.
In turn, `NS(=O)(=O)c1cc(Cl)c(NC(=S)NC(=O)Nc2ccc(Cl)c(Cl)c2)c(Cl)c1` showed a TGI of 90.7 µM.
Same read-out and setting: with `Cc1cn(C2CC(O)C(CO)O2)c(=O)[nH]c1=O` (configuration not stated) the figure was > 5000 µM; with `CCOP(=O)(OCC)C(c1ccc(F)cc1)N(C(=O)NC(F)(F)F)c1ccc(OC)cc1` (configuration not stated), > 100 µM; with `CSC(=S)N/N=C(\C)c1ccc(S(=O)(=O)N(C)c2ccccc2)cc1`, > 100 µM.
Still for that read-out and setting: with `O=C1c2ccccc2-c2c1c(-c1ccc(F)cc1)nc1ccc3ccccc3c21` the figure was > 100 µM; with `COc1ccc2c(c1)/C(=C\c1c(Cl)nc3sc(C)cn13)C(=O)N2`, 6.76 µM; with `CCOC(=O)c1ccc(NCC#CCN2CCOCC2)cc1`, > 100 µM.
Consider `COc1ccc(-c2nc(SCC(=O)N/N=C/c3ccc(N(C)C)cc3)[nH]c2-c2ccc(OC)cc2)cc1`, for which the TGI was > 100 µM.
Still for that read-out and setting: the result for `COc1cccc2c(=O)oc(-c3ccc(C(C)(C)C)cc3)nc12` reads > 100 µM; that for `COc1ccc2c(c1)OCC1Cc3ccccc3OC21` (configuration not stated), > 100 µM; that for `COC(=O)C1CCC(=O)N1C(c1ccc(OC)cc1)c1ccc2c(c1)OCO2` (configuration not stated), 98.6 µM.
Take `CCOC(=O)c1cn2c(nc1=O)N[C@H]1CCCC[C@@H]12`: the TGI is > 100 µM.
Still for that read-out and setting: with `CCNC(=O)Cc1nc2c(N)ncnc2n1C1OC(CO)C(O)C1O` (configuration not stated) the figure was > 100 µM; with `[O-][n+]1ccccc1Sc1nc(Sc2cccc[n+]2[O-])nc(Sc2cccc[n+]2[O-])n1`, 4.06 µM.

Another experiment concerns K-562 leukemia. Nature of the experiment: inhibition of tumour cell growth, NCI panel, 48 h.
With `NS(=O)(=O)c1cc2c(cc1Cl)NC(CCC(=O)O)=NS2(=O)=O`, the TGI was > 100 µM.
The compound `CCOC(=O)c1nc2c(nc1C(=O)OCC)C(=O)c1ccccc1C2=O` had a TGI of 4.46 µM.
Consider `Cc1ccc2c(c1)C(=O)C1(Cc3ccccc3C1=O)C2` (configuration not stated), for which the TGI is > 100 µM.
With `CC(=O)Nc1nc(C#N)[nH]c1C#N`, the TGI was > 100 µM.
Still for that read-out and setting: with `O=C(O)/C=C(/C(=O)O)C12CCN3CC4=CCOC5CC(=O)NC1C5C4CC32` (configuration not stated) the figure was > 100 µM; with `Cc1c(S(=O)(=O)c2ccccc2)c(N)n(CCN(C)C)c1C`, > 100 µM; with `CS(=O)c1ncc2c(n1)-c1ccccc1OC2` (configuration not stated), > 100 µM.
For `O=[N+]([O-])c1ccc(Oc2c(Cl)cc(S(=O)(=O)/N=C(\NO)Nc3ccc(Cl)cc3)cc2Cl)cc1`, the TGI turned out to be 35.9 µM.
Still for that read-out and setting: the result for `Cc1cc(N(CCOS(C)(=O)=O)CCOS(C)(=O)=O)ccc1C=O` reads > 100 µM; that for `O=c1[nH]c(=O)n(C2OC(CO)C(O)C2O)c2nc(-c3ccc(-c4ccccc4)cc3)cnc12` (configuration not stated), > 100 µM; that for `CN1CSC(=S)N(c2c3ccccc3nc3ccc(Br)cc23)C1`, > 32.4 µM.
Consider `O=C(O)c1ccccc1CC1Cc2ccccc2C1=O` (configuration not stated), for which the TGI was > 100 µM.
`NS(=O)(=O)c1cc(Cl)c(NC(=S)NC(=O)Nc2ccc(Cl)c(Cl)c2)c(Cl)c1`: the TGI was > 100 µM.
Take `Cc1cn(C2CC(O)C(CO)O2)c(=O)[nH]c1=O` (configuration not stated): the TGI is > 5000 µM.
With `CCOP(=O)(OCC)C(c1ccc(F)cc1)N(C(=O)NC(F)(F)F)c1ccc(OC)cc1` (configuration not stated), the TGI is > 100 µM.
With `CSC(=S)N/N=C(\C)c1ccc(S(=O)(=O)N(C)c2ccccc2)cc1`, the TGI was > 100 µM.
Still for that read-out and setting: the result for `O=C1c2ccccc2-c2c1c(-c1ccc(F)cc1)nc1ccc3ccccc3c21` reads > 100 µM; that for `COc1ccc2c(c1)/C(=C\c1c(Cl)nc3sc(C)cn13)C(=O)N2`, 9.56 µM; that for `CCOC(=O)c1ccc(NCC#CCN2CCOCC2)cc1`, > 100 µM.
Same read-out and setting: the result for `COc1ccc(-c2nc(SCC(=O)N/N=C/c3ccc(N(C)C)cc3)[nH]c2-c2ccc(OC)cc2)cc1` reads > 100 µM.
Same read-out and setting: the result for `COc1cccc2c(=O)oc(-c3ccc(C(C)(C)C)cc3)nc12` reads > 100 µM; that for `COc1ccc2c(c1)OCC1Cc3ccccc3OC21` (configuration not stated), > 100 µM.
For `COC(=O)C1CCC(=O)N1C(c1ccc(OC)cc1)c1ccc2c(c1)OCO2` (configuration not stated), the TGI is > 100 µM.
`CCOC(=O)c1cn2c(nc1=O)N[C@H]1CCCC[C@@H]12`: the TGI was > 100 µM.
Still for that read-out and setting: the result for `CCC1(CC)C(=O)NN(C(=O)c2ccccc2)C1=O` reads > 100 µM.
With `CCNC(=O)Cc1nc2c(N)ncnc2n1C1OC(CO)C(O)C1O` (configuration not stated), the TGI was > 100 µM.
For the compound `Cc1cc(C(=O)CCCCOc2ccc(C3=NCCO3)cc2)c(C)n1C`, the TGI is > 100 µM.

Another experiment concerns HCT-116 colon. Nature of the experiment: inhibition of tumour cell growth, NCI panel, 48 h.
Consider `NS(=O)(=O)c1cc2c(cc1Cl)NC(CCC(=O)O)=NS2(=O)=O`, for which the TGI is > 100 µM.
Same read-out and setting: with `CCOC(=O)c1nc2c(nc1C(=O)OCC)C(=O)c1ccccc1C2=O` the figure was 4.25 µM.
On the same count and under the same terms, the result for `Cc1ccc2c(c1)C(=O)C1(Cc3ccccc3C1=O)C2` (configuration not stated) reads > 100 µM.
As to `CC(=O)Nc1nc(C#N)[nH]c1C#N`, the TGI was > 100 µM.
Consider `O=C(O)/C=C(/C(=O)O)C12CCN3CC4=CCOC5CC(=O)NC1C5C4CC32` (configuration not stated), for which the TGI is > 100 µM.
Same read-out and setting: the result for `Cc1c(S(=O)(=O)c2ccccc2)c(N)n(CCN(C)C)c1C` reads > 100 µM; that for `CS(=O)c1ncc2c(n1)-c1ccccc1OC2` (configuration not stated), > 100 µM; that for `O=[N+]([O-])c1ccc(Oc2c(Cl)cc(S(=O)(=O)/N=C(\NO)Nc3ccc(Cl)cc3)cc2Cl)cc1`, 22.6 µM.
For `Cc1cc(N(CCOS(C)(=O)=O)CCOS(C)(=O)=O)ccc1C=O`, the TGI is > 100 µM.
The same measure, in the same setting: the result for `O=c1[nH]c(=O)n(C2OC(CO)C(O)C2O)c2nc(-c3ccc(-c4ccccc4)cc3)cnc12` (configuration not stated) reads > 100 µM; that for `CN1CSC(=S)N(c2c3ccccc3nc3ccc(Br)cc23)C1`, 15.7 µM; that for `O=C(O)c1ccccc1CC1Cc2ccccc2C1=O` (configuration not stated), > 100 µM.
Consider `NS(=O)(=O)c1cc(Cl)c(NC(=S)NC(=O)Nc2ccc(Cl)c(Cl)c2)c(Cl)c1`, for which the TGI is > 100 µM.
On the same count and under the same terms, with `Cc1cn(C2CC(O)C(CO)O2)c(=O)[nH]c1=O` (configuration not stated) the figure was > 4240 µM.
